Results on 24 compounds are retold here after patent US8163771B2, “11 β-HSD1 modulators” (Exelixis, Inc., priority 2008, dated 2012).

For the assay, the target named is T1, recombinant human 11 β-HSD1 (Homo sapiens, UniProt P28845).
T1 construct: made in house; host or cells: E. coli
T1 sequence (P28845 whole entry): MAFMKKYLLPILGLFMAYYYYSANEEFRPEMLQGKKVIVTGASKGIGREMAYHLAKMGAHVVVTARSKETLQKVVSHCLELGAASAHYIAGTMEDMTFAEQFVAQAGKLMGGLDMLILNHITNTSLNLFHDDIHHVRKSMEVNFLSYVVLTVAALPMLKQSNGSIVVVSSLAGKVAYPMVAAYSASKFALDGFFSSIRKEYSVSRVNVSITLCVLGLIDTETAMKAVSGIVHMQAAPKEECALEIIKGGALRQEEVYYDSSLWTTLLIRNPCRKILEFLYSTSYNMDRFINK
Description: 11 β-HSD1 SPA Assay (Scintillation Proximity Assay). In kind it is biochemical. In outline:
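E. coli-expressed human enzyme (30-100 nM) with tritiated cortisone 40 nM and NADPH 1 mM in HEPES buffer pH7.4, 2 hours at room temperature. Stopped with protein A SPA beads carrying anti-cortisol antibody and glycyrrhetinic acid; counted after overnight incubation. IC50 from percent inhibition between no-enzyme and no-compound signals.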
In general terms: SPA uses beads or plates that emit light when radiolabelled molecules are held near them.
What is called IC50 is the midpoint of a concentration-inhibition curve. `CC(C)(Oc1cc(C(C)(C)O)c(Cl)cc1Cl)C(=O)N[C@H]1C[C@H]2CC[C@@H](C1)N2c1ccc(C(=O)NCC(F)F)cn1` [Example 429, 6-[3-endo-({2-[2,4-dichloro-5-(2-hydroxypropan-2-yl)phenoxy]-2-methylpropanoyl}amino)-8-azabicyclo[3.2.1]oct-8-yl]-N-(2,2-difluoroethyl)pyridine-3-carboxamide]: the IC50 is < 200 nM.

In the case of `C[C@H](NC(=O)c1ccc(N2C3CCC2CC(NC(=O)C(C)(C)Oc2cc(F)c(F)cc2Cl)C3)nc1)C(F)(F)F` (stereo partly drawn) [Example 430, 6-(3-endo-{[2-(2-chloro-4,5-difluorophenoxy)-2-methylpropanoyl]amino}-8-azabicyclo[3.2.1]oct-8-yl)-N-[(2S)-1,1,1-trifluoropropan-2-yl]pyridine-3-carboxamide], the IC50 is < 200 nM.

Consider `C[C@H](NC(=O)c1ccc(N2C3CCC2CC(NC(=O)C(C)(C)Oc2ccc(F)cc2F)C3)nc1)C(F)(F)F` (stereo partly drawn) [Example 431, 6-(3-endo-{[2-(2,4-difluorophenoxy)-2-methylpropanoyl]amino}-8-azabicyclo[3.2.1]oct-8-yl)-N-[(2S)-1,1,1-trifluoropropan-2-yl]pyridine-3-carboxamide], for which the IC50 is < 200 nM.

Turning to `C[C@H](NC(=O)c1ccc(N2C3CCC2CC(NC(=O)C(C)(C)Oc2ccc(Cl)cc2S(C)(=O)=O)C3)nc1)C(F)(F)F` (stereo partly drawn) [Example 432, 6-[3-endo-({2-[4-chloro-2-(methylsulfonyl)phenoxy]-2-methylpropanoyl}amino)-8-azabicyclo[3.2.1]oct-8-yl]-N-[(2S)-1,1,1-trifluoropropan-2-yl]pyridine-3-carboxamide], the IC50 is < 2000 nM.

Regarding `CC(C)(Oc1ccc(Cl)cc1C(F)F)C(=O)N[C@H]1C[C@H]2CC[C@@H](C1)N2c1ccc(C(=O)NCC(F)F)cn1` [Example 433, 6-[3-endo-({2-[4-chloro-2-(difluoromethyl)phenoxy]-2-methylpropanoyl}amino)-8-azabicyclo[3.2.1]oct-8-yl]-N-(2,2-difluoroethyl)pyridine-3-carboxamide], the IC50 was < 200 nM.

For the compound `C[C@H](NC(=O)c1ccc(N2C3CCC2CC(NC(=O)C(C)(C)Oc2ccc(F)cc2Cl)C3)nc1)C(F)(F)F` (stereo partly drawn) [Example 434, 6-(3-endo-{[2-(2-chloro-4-fluorophenoxy)-2-methylpropanoyl]amino}-8-azabicyclo[3.2.1]oct-8-yl)-N-[(2S)-1,1,1-trifluoropropan-2-yl]pyridine-3-carboxamide], the IC50 is < 200 nM.

For the compound `C[C@H](NC(=O)c1ccc(N2C3CCC2CC(NC(=O)C(C)(C)Oc2ccc(Cl)cc2F)C3)nc1)C(F)(F)F` (stereo partly drawn) [Example 435, 6-(3-endo-{[2-(4-chloro-2-fluorophenoxy)-2-methylpropanoyl]amino}-8-azabicyclo[3.2.1]oct-8-yl)-N-[(2S)-1,1,1-trifluoropropan-2-yl]pyridine-3-carboxamide], the IC50 is < 200 nM.

Take `CC(C)(Oc1cc(F)c(Cl)cc1Cl)C(=O)N[C@H]1C[C@H]2CC[C@@H](C1)N2c1ccc(C(=O)NCC(F)F)cn1` [Example 436, 6-(3-endo-{[2-(2,4-dichloro-5-fluorophenoxy)-2-methylpropanoyl]amino}-8-azabicyclo[3.2.1]oct-8-yl)-N-(2,2-difluoroethyl)pyridine-3-carboxamide]: the IC50 was < 200 nM.

For the compound `C[C@H](NC(=O)c1ccc(N2C3CCC2CC(NC(=O)C(C)(C)Oc2ccc(F)c(Cl)c2Cl)C3)nc1)C(F)(F)F` (stereo partly drawn) [Example 437, 6-(3-endo-{[2-(2,3-dichloro-4-fluorophenoxy)-2-methylpropanoyl]amino}-8-azabicyclo[3.2.1]oct-8-yl)-N-[(2S)-1,1,1-trifluoropropan-2-yl]pyridine-3-carboxamide], the IC50 was < 200 nM.

On to `CC(C)(O)CNC(=O)c1ccc(N2[C@@H]3CC[C@H]2C[C@@H](NC(=O)C(C)(C)Oc2ccc(Cl)cc2OC(F)(F)F)C3)nc1` [Example 438, 6-[3-endo-({2-[4-chloro-2-(trifluoromethoxy)phenoxy]-2-methylpropanoyl}amino)-8-azabicyclo[3.2.1]oct-8-yl]-N-(2-hydroxy-2-methylpropyl)pyridine-3-carboxamide], for which the half-maximal inhibitory concentration (IC50) was < 200 nM.

For `C[C@H](NC(=O)c1ccc(N2C3CCC2CC(NC(=O)C(C)(C)Oc2ncc(F)cc2C(F)F)C3)nc1)C(F)(F)F` (stereo partly drawn) [Example 439, 6-{3-endo-[(2-{[3-(difluoromethyl)-5-fluoropyridin-2-yl]oxy}-2-methylpropanoyl)amino]-8-azabicyclo[3.2.1]oct-8-yl}-N-[(2S)-1,1,1-trifluoropropan-2-yl]pyridine-3-carboxamide], the IC50 was < 2000 nM.

`CC(C)(Oc1ncc(F)cc1C(F)F)C(=O)N[C@H]1C[C@H]2CC[C@@H](C1)N2c1ccc(C(=O)NCC(F)F)cn1` [Example 440, N-(2,2-difluoroethyl)-6-{3-endo-[(2-{[3-(difluoromethyl)-5-fluoropyridin-2-yl]oxy}-2-methylpropanoyl)amino]-8-azabicyclo[3.2.1]oct-8-yl}pyridine-3-carboxamide]: the IC50 is < 200 nM.

On to `CC(C)(Oc1ccc(F)c(Cl)c1Cl)C(=O)N[C@H]1C[C@H]2CC[C@@H](C1)N2c1ccc(C(=O)NCC(F)F)cn1` [Example 441, 6-(3-endo-{[2-(2,3-dichloro-4-fluorophenoxy)-2-methylpropanoyl]amino}-8-azabicyclo[3.2.1]oct-8-yl)-N-(2,2-difluoroethyl)pyridine-3-carboxamide], for which the IC50 was < 200 nM.

On to `CC(C)(Oc1cc(F)c(F)cc1Cl)C(=O)N[C@H]1C[C@H]2CC[C@@H](C1)N2c1ccc(C(=O)NCC(F)F)cn1` [Example 442, 6-(3-endo-{[2-(2-chloro-4,5-difluorophenoxy)-2-methylpropanoyl]amino}-8-azabicyclo[3.2.1]oct-8-yl)-N-(2,2-difluoroethyl)pyridine-3-carboxamide], for which the IC50 is < 200 nM.

As to `CC(C)(Oc1ccc(F)cc1F)C(=O)N[C@H]1C[C@H]2CC[C@@H](C1)N2c1ccc(C(=O)NCC(F)F)cn1` [Example 443, N-(2,2-difluoroethyl)-6-(3-endo-{[2-(2,4-difluorophenoxy)-2-methylpropanoyl]amino}-8-azabicyclo[3.2.1]oct-8-yl)pyridine-3-carboxamide], the IC50 is < 200 nM.

On to `CC(C)(Oc1cc(CC(=O)O)c(Cl)cc1Cl)C(=O)N[C@H]1C[C@H]2CC[C@@H](C1)N2c1ccc(C(=O)NCC(F)(F)F)cn1` [Example 444, [2,4-dichloro-5-({2-methyl-1-oxo-1-[(8-{5-[(2,2,2-trifluoroethyl)carbamoyl]pyridin-2-yl}-8-azabicyclo[3.2.1]oct-3-endo-yl)amino]propan-2-yl}oxy)phenyl]acetic acid], for which the IC50 is < 200 nM.

Turning to `CC(C)(Oc1cc(C(C)(C)C(=O)O)c(Cl)cc1Cl)C(=O)N[C@H]1C[C@H]2CC[C@@H](C1)N2c1ccc(C(=O)NCC(F)(F)F)cn1` [Example 445, 2-[2,4-dichloro-5-({2-methyl-1-oxo-1-[(8-{5-[(2,2,2-trifluoroethyl)carbamoyl]pyridin-2-yl}-8-azabicyclo[3.2.1]oct-3-endo-yl)amino]propan-2-yl}oxy)phenyl]-2-methylpropanoic acid], the IC50 is < 200 nM.

Regarding `CC(C)(Oc1cc(C(C)(C)C(N)=O)c(Cl)cc1Cl)C(=O)N[C@H]1C[C@H]2CC[C@@H](C1)N2c1ccc(C(=O)NCC(F)(F)F)cn1` [Example 446, 6-[3-endo-({2-[5-(1-amino-2-methyl-1-oxopropan-2-yl)-2,4-dichlorophenoxy]-2-methylpropanoyl}amino)-8-azabicyclo[3.2.1]oct-8-yl]-N-(2,2,2-trifluoroethyl)pyridine-3-carboxamide], the IC50 is < 200 nM.

As for `CC(C)(Oc1ccc(Cl)cc1F)C(=O)N[C@H]1C[C@H]2CC[C@@H](C1)N2c1ccc(C(=O)NCC(F)F)cn1` [Example 447, 6-(3-endo-{[2-(4-chloro-2-fluorophenoxy)-2-methylpropanoyl]amino}-8-azabicyclo[3.2.1]oct-8-yl)-N-(2,2-difluoroethyl)pyridine-3-carboxamide], the IC50 was < 200 nM.

Take `CC(C)(Oc1ccc(Cl)cc1OC(F)(F)F)C(=O)NC1CC2CCC(C1)N2c1ccc(C(=O)NCC(O)C(F)(F)F)cn1` (stereo not drawn) [Example 448, 6-[3-endo-({2-[4-chloro-2-(trifluoromethoxy)phenoxy]-2-methylpropanoyl}amino)-8-azabicyclo[3.2.1]oct-8-yl]-N-(3,3,3-trifluoro-2-hydroxypropyl)pyridine-3-carboxamide]: the IC50 is < 200 nM.

Turning to `CC(C)(Oc1ccc(Cl)cc1C(F)F)C(=O)NC1CC2CCC(C1)N2c1ccc(C(=O)NCC(O)C(F)(F)F)cn1` (stereo not drawn) [Example 449, 6-[3-endo-({2-[4-chloro-2-(difluoromethyl)phenoxy]-2-methylpropanoyl}amino)-8-azabicyclo[3.2.1]oct-8-yl]-N-(3,3,3-trifluoro-2-hydroxypropyl)pyridine-3-carboxamide], the concentration for half-maximal inhibition (IC50) was < 200 nM.

Turning to `C[C@@H](NC(=O)c1ccc(N2C3CCC2CC(NC(=O)C(C)(C)Oc2cc(F)c(Cl)cc2Cl)C3)nc1)C(F)(F)F` (stereo partly drawn) [Example 450, 6-(3-endo-{[2-(2,4-dichloro-5-fluorophenoxy)-2-methylpropanoyl]amino}-8-azabicyclo[3.2.1]oct-8-yl)-N-[(2R)-1,1,1-trifluoropropan-2-yl]pyridine-3-carboxamide], the IC50 was < 200 nM.

`C[C@@H](NC(=O)c1ccc(N2C3CCC2CC(NC(=O)C(C)(C)Oc2cc(F)c(F)cc2Cl)C3)nc1)C(F)(F)F` (stereo partly drawn) [Example 451, 6-(3-endo-{[2-(2-chloro-4,5-difluorophenoxy)-2-methylpropanoyl]amino}-8-azabicyclo[3.2.1]oct-8-yl)-N-[(2R)-1,1,1-trifluoropropan-2-yl]pyridine-3-carboxamide]: the IC50 was < 200 nM.

On to `C[C@@H](NC(=O)c1ccc(N2C3CCC2CC(NC(=O)C(C)(C)Oc2ccc(F)cc2Cl)C3)nc1)C(F)(F)F` (stereo partly drawn) [Example 452, 6-(3-endo-{[2-(2-chloro-4-fluorophenoxy)-2-methylpropanoyl]amino}-8-azabicyclo[3.2.1]oct-8-yl)-N-[(2R)-1,1,1-trifluoropropan-2-yl]pyridine-3-carboxamide], for which the half-inhibitory concentration (IC50) is < 200 nM.
